According to US6888016B2, “Mixtures for stimulating glucose up-take” (Loders Croklaan USA LLC, priority 2001, dated 2005):

Tested on: 3T3-L1 adipocytes
Assay: Insulin stimulated glucose uptake (ISGU), [3H]2-deoxyglucose incorporation in differentiated adipocytes
Assay type: cell-based, Murine
Conditions: 3 days incubation; for increase in glucose uptake in combination with CLA over CLA alone: compound A in combination with CLA, 1 nM insulin, significantly higher than CLA alone, P<0.05 Students T-test, FIG. 2
Description: Murine (3T3-L1 cells; ATCC CL-173) were seeded into multi-well plates and incubated in growth medium (DMEM supplemented with 10% FCS, 2 mM L-glutamine, 100 iu/ml penicillin and 100 μg/ml streptomycin) at 37° C./5% CO2 until 2 days post-confluence (day 0). Differentiation was carried out approximately according to Iwata et al (Diabetes 2001 50: 1083-1092). Briefly, differentiation was induced by changing to growth medium containing 3-isobutyl-1-methylxanthine (0.5 mM), dexamethasone (0.25 μM) and 1 μM insulin for 3 days, and then growth medium containing 0.8 μM insulin for another 3 days. Finally cells were retained in serum free growth medium until ready for experimentation, typically cells were used between days 6-9.
Pine nut oil (PNO) and palm kernel oil (PKO) fatty acids were prepared by saponification of pine nut oil or palm kernel oil. PNO contains high levels of PUFAs, in particular high levels of pinolenic acid. PKO has high levels of medium chain fatty acids (C8-12). All samples were prepared as 1 mg/ml stocks in ethanol and diluted in media accordingly with the following exceptions. IGF-1 was prepared by initially dissolving in […], followed by the addition of 400 μl PBS supplemented with 1 mg/ml BSA. This was diluted with media to the correct concentration. Ascorbic acid, sodium vanadate and aspartame were made up in DMEM.
Differentiated adipocytes were incubated for a period of 3 days in DMEM (containing 2 mM L-glutamine, 100 iu/ml penicillin, 100 μg/ml streptomycin, 1 nM insulin and 10% FCS) supplemented with or without CLA and/or compound As. The cells were then washed three times with DMEM (containing 1 mM deoxyglucose). Insulin stimulated glucose uptake was carried out according to Iwata et al (Diabetes 2001 50: 1083-1092). Briefly, cells were stimulated with 1 nM insulin in Krebs Ringer Phosphate (KRP) and HEPES buffer [10 mM HEPES, 131.2 mM NaCl, 4.7 mM KCl, 2.5 mM CaCl2, 1.2 mM MgSO4, 2.5 mM sodium phosphate buffer, pH 7.4] with 1% BSA at 37° C. […] Radioactive incorporation was measured by scintillation counting of 100 μl of each cell lysate. […]

Compound | increase in glucose uptake in combination with CLA over CLA alone [%] | insulin stimulated glucose uptake (ISGU), effect of CLA alone (CLA fatty acids at 10 or 50 μg/ml, compared with control differentiated adipocytes, radiolabel incorporation (3H-DPM), FIG. 1)
IGF-1: IGF-1, purified or in natural extracts; compound A | 39 | 
O=C1O[C@H]([C@@H](O)CO)C(O)=C1O [Vit C, Ascorbic acid] | 20 | 
Conjugated linoleic acid [CLA] |  | reduces ISGU compared with the control
